In EP1144412B1, “IMMUNOSUPPRESSIVE EFFECTS OF PTERIDINE DERIVATIVES” (4 AZA Bioscience nv, priority 1998, dated 2000):
Like-named read-outs stand apart in the source and are kept apart here.

Columns and labels:
Highly purified T cells [1] = experiment: T cell proliferation induced by anti-CD28 mAb + PMA (BrdU incorporation); type: cell-based, Human; settings: for IC50: Homo sapiens, T-cell
Text: (§1) Various models may be used for testing an immunosuppressive effect. In vivo, for example, different transplantation models are available. They are strongly influenced by different immunogenicities, depending on the donor and recipient species used and depending on the nature of the transplanted organ. The survival time of transplanted organs can thus be used to measure the suppression of the immune response. In vitro, there exist also various models. The most used are lymphocyte activation tests. Usually activation is measured via lymphocyte proliferation. Inhibition of proliferation thus always means immunosuppression under the experimental conditions applied. There exist different stimuli for lymphocyte activation: • coculture of lymphocytes of […] (MLR = mixed lymphocyte reaction): lymphocytes expressing different minor and major antigens of the HLA-DR type (= alloantigens) activate each other non-specifically. • CD3 assay: here there is an activation of the T-lymphocytes via an exogenously added antibody (OKT3). This antibody reacts against the CD3 molecule located on the lymphocyte membrane. This molecule has a costimulatory function. […] This molecule is also located on the lymphocyte membrane, and delivers strong costimulatory signals.
(§2) T cells were purified by removing non-T cells. Briefly,monocytes were removed by cold agglutination. The resulting lymphoid cells were further purified by a cell enrichment immunocolumn [Cellect Human T (Biotex, Edmonton, Alberta, Canada)] by a process of negative selection.
(§3) Measurements of T cell proliferations induced by anti-CD3 mAb + PMA or anti-CD28 mAb + PMA
(§4) Highly purified T cells (10^6/ml) were stimulated by immobilized anti-CD3 àr anti-CD28 mAb in the presence of PMA. Anti-CD3 mAb (CLB-CD3; CLB, Amsterdam, The Netherlands) were fixed on the 96-microwell plates by incubating the wells with 50 µl of mAb solution (1/800 dilution in culture medium). Anti-CD28 mAb (CLB-CD28; CLB, Amsterdam, The Netherlands) 50 µl (1/650 dilution in culture medium) was added directly to the wells. Further, 20 µl PMA (Sigma, St. Louis, MO, USA) solution (final concentration: 0.5 ng/ml) was added. Subsequently, 20 µl of immunosuppressants were added by serial dilution in triplicate wells. Finally 100 µl of the T cell suspension (10^6/ml) was added. After 48-hour incubation at 37EC in 5% CO2 20 Φl BrdU (100 ΦM solution) (Cell Proliferation Elisa, Boehringer-Mannheim Belgium) was added to each well. After a further overnight incubation the T cell proliferation was measured using a colorimetric immunoassay for qualification of cell proliferation based on measurements of the incorporation of BrdU during DNAsynthesis. The optical density (OD) was measured by a Behring EL311 plate reader at 450 nm (reference wavelength: 690 nm). The percent suppression of proliferation by drugs was counted using the formula: Per cent inhibition =((OD + drugs) - (OD Cult. Med.))/((OD - drugs) - (OD Cult. Med.))x 100 [formula]

Highly purified T cells [2] = experiment: T cell proliferation induced by anti-CD3 mAb + PMA (BrdU incorporation); type: cell-based, Human; settings: for IC50: Homo sapiens, T-cell
Text: as §1, §2, §3, §4

[3] = system: Peripheral blood mononuclear cells (PBMC); experiment: Mixed lymphocyte reaction (MLR), [3H]-thymidine incorporation; type: cell-based; settings: Homo sapiens
Text: as §1
Peripheral blood mononuclear cells (PBMC) were isolated from heparinized peripheral blood by density gradient centrifugation over Lymphoprep (Nycomed, Maorstua, Norway). Allogeneic PBMC or EBV-transformed human B cells [RPMI1788 (ATCC name CCL156)] which strongly express B7-1 and B7-2 were used as stimulator cells after irradiation with 30 Gy. MLR was performed in triplicate wells. After 5 days incubation at 37EC, 1 µCi [^3H]-thymidine was added to each cup. After a further 16 hours incubation, cells were harvested and counted in a β-counter.
The percent suppression of proliferation by drugs was counted using the formula Percent inhibition =((cpm + drugs) - cpm Cult. Med)/((cpm - drugs) - cpm Cult. Med.)x 100 [formula]

[4] = Table II, read-out: IC50 in µM of pteridine derivative aCD28
[5] = untitled structure table, no unit printed there, same values in Table II as IC50 in µM, read-out: aCD28
[6] = Table II, read-out: IC50 in µM of pteridine derivative ACD3
[7] = untitled structure table, no unit printed there, same values in Table II as IC50 in µM, read-out: aCD3
[8] = Table II, read-out: IC50 in µM of pteridine derivative MLR
[9] = untitled structure table, no unit printed there, same values in Table II as IC50 in µM, read-out: MLR
[10] = Table IV, known pteridine derivatives, IC50 subranges, read-out: aCD28
[11] = Table IV, known pteridine derivatives, IC50 subranges, read-out: aCD3
[12] = Table IV, known pteridine derivatives, IC50 subranges, read-out: MLR
[13] = Table III, comparison immunosuppressants, read-out: IC50 aCD3
[14] = Table III, comparison immunosuppressants, read-out: IC50 MLR

Row | SMILES | IC50 (Highly purified T cells [1]; [4]) | IC50 (Highly purified T cells [1]; [5]) | IC50 (Highly purified T cells [2]; [6]) | IC50 (Highly purified T cells [2]; [7]) | IC50 [3, 8] | IC50 [3, 9] | also measured
1 | Nc1nc(N2CCNCC2)c2nc(-c3ccccc3)cnc2n1 [Compound 46, 2-amino-4-piperazino-6-phenylpteridine] | 5 µM | 5 µM | 11.7 µM | 11.7 µM | 12 µM | 12 µM | –
2 | COc1ccc(-c2cnc3nc(N)nc(N4CCNCC4)c3n2)cc1OC [Compound 49, 2-amino-4-piperazino-6-(3,4-dimethoxyphenyl)pteridine] | 4.5 µM | 4.5 µM | 14.8 µM | 14.8 µM | 2.8 µM | 2.8 µM | –
3 | CN1CCN(c2nc(N)nc3ncc(-c4ccccc4)nc23)CC1 [Compound 41, 2-amino-4-N-methylpiperazino-6-phenylpteridine] | 25 µM | 25 µM | 40 µM | 40 µM | 15 µM | 15 µM | –
4 | CN(C)Cc1cnc2nc(N)[nH]c(=O)c2n1 [CH2N(CH3)2, reference compound] | – | – | – | – | – | – | IC50 (Highly purified T cells [1]; [10]): > 151 µM; IC50 (Highly purified T cells [2]; [11]): > 151 µM; IC50 [3, 12]: > 151 µM
5 | CN(Cc1cnc2nc(N)nc(N)c2n1)c1ccc(C(=O)N[C@@H](CCC(=O)O)C(=O)O)cc1 [MTX, methatroxate, reference compound] | – | – | – | – | – | – | IC50 (Highly purified T cells [1]; Table III, comparison immunosuppressants, read-out: IC50 aCD28): > 200 µM; IC50 (Highly purified T cells [2]; [13]): > 200 µM; IC50 [3, 14]: 10 µM
6 | CCCCCOc1nc(N)nc2ncc(C=Cc3ccccc3)nc12 [Compound 1, 2-amino-4-pentoxy-6-styrylpteridine] | 80 µM | 80 µM | 110 µM | 110 µM | 15 µM | 15 µM | –
7 | COc1ccc(-c2cnc3nc(NC(C)=O)nc(OC(C)C)c3n2)cc1OC [Compound 65, 2-acetamido-4-i-propoxy-6-(3,4-dimethoxyphenyl)pteridine] | – | – | – | – | – | – | IC50 (Highly purified T cells [1]; untitled structure table, IC50 subranges, read-out: aCD28): 16 to 150 µM; IC50 (Highly purified T cells [2]; untitled structure table, IC50 subranges, read-out: aCD3): 16 to 150 µM; IC50 ([3]; untitled structure table, IC50 subranges, read-out: MLR): 1 to 15 µM
8 | CCN(CC)c1nc(N)nc2ncc(-c3ccccc3)nc12 [Compound 21, 2-amino-4-diethylamino-6-phenylpteridine] | 20 µM | 20 µM | 80 µM | 80 µM | 15 µM | 15 µM | –
9 | C=CC[C@@H]1/C=C(\C)C[C@H](C)C[C@H](OC)[C@H]2O[C@@](O)(C(=O)C(=O)N3CCCC[C@H]3C(=O)O[C@H](/C(C)=C/[C@@H]3CC[C@@H](O)[C@H](OC)C3)[C@H](C)[C@@H](O)CC1=O)[C@H](C)C[C@@H]2OC [FK506, tacrolimus, reference compound] | – | – | – | – | – | – | activity in the anti-CD28 + PMA test (Highly purified T cells [1]): not suppressive; activity in the anti-CD3 + PMA test (Highly purified T cells [2]): only active; IC50 (Highly purified T cells [2]; [13]): 0.001 µM; IC50 [3, 14]: 0.001 µM
10 | Nc1nc(N(Cc2ccccc2)Cc2ccccc2)c2nc(-c3ccccc3)cnc2n1 [Compound 25, 2-amino-4-dibenzylamino-6-phenyl pteridine] | 25 µM | 25 µM | 25 µM | 25 µM | 75 µM | 75 µM | –
11 | COc1ccc(-c2cnc3nc(N)nc(N4CCOCC4)c3n2)cc1OC [Compound 36, 2-amino-4-morpholino-6-(3,4-dimethoxyphenyl)pteridine] | 0.3 µM | 0.3 µM | 0.4 µM | 0.4 µM | 0.1 µM | 0.1 µM | –
12 | Cc1ccc(-c2cnc3nc(NCCO)nc(N)c3n2)cc1 [Compound 11, 2-hydroxyethylamino-4-amino-6-(4-tolyl)pteridine] | 160 µM | 160 µM | 200 µM | 200 µM | > 200 µM | > 200 µM | –
13 | Nc1nc(N)c2nc(-c3ccccc3)cnc2n1 [Compound 5, 2,4-diamino-6-phenyl pteridine] | > 200 µM | > 200 µM | > 200 µM | > 200 µM | > 200 µM | > 200 µM | –
14 | CCN(CC)c1nc(N)nc2ncc(-c3ccc(OC)cc3)nc12 [Compound 23, 2-amino-4-diethylamino-6-(4-methoxyphenyl) pteridine] | 20 µM | 20 µM | 20 µM | 20 µM | 12 µM | 12 µM | –
15 | COc1nc(N)nc2ncc(C(O)C(C)O)nc12 (stereo not shown) [Compound 4, 2-amino-4-methoxy-6-(1,2-dihydroxypropyl)pteridine] | 110 µM | 110 µM | 140 µM | 140 µM | > 200 µM | > 200 µM | –
16 | COc1ccc(-c2cnc3nc(N)nc(N4CCN(C)CC4)c3n2)cc1OC [Compound 44] | 6.5 µM | 6.5 µM | 7.3 µM | 7.3 µM | 2 µM | 2 µM | –
17 | CCOCc1cnc2nc(N)[nH]c(=O)c2n1 [CH2OC2H5, reference compound] | – | – | – | – | – | – | IC50 (Highly purified T cells [1]; [10]): > 151 µM; IC50 (Highly purified T cells [2]; [11]): > 151 µM; IC50 [3, 12]: > 151 µM
18 | CSCc1cnc2nc(N)nc(N)c2n1 [CH2 S CH3, reference compound] | – | – | – | – | – | – | IC50 (Highly purified T cells [1]; [10]): > 151 µM; IC50 (Highly purified T cells [2]; [11]): > 151 µM; IC50 [3, 12]: > 151 µM
